A short description of data set [1]: Solubility analysis in PBS (Analysis Method B). In kind it is physicochemical. Particulars: pH 7.4. The method, then: The solubility of compounds of the invention was tested as described in the general methods. Solubility was then graded according to a rating between 1 to 5, where 1 is most soluble and 5 is least soluble.
The target in data set [2] is T1, GnRHR (Homo sapiens, UniProt P30968).
T1 sequence (P30968 1-328): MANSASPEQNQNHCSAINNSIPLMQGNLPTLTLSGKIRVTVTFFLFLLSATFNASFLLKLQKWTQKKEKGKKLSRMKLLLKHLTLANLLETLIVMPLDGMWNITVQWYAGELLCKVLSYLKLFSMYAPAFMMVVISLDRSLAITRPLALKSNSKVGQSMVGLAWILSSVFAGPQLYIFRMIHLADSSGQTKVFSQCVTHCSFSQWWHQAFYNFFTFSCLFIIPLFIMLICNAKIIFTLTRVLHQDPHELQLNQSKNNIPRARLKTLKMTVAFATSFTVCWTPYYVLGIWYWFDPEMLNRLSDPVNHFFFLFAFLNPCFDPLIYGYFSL

From US11564969B2, “Immunorhelin compounds for intracellular infections” (ISR IMMUNE SYSTEM REGULATION HOLDING AB (PUBL), priority 2017, dated 2023) come the findings set out here.

Structures can show the parent of a compound that is named as a salt. Where two headings read alike, the source gives them in different places. Square brackets hold non-standard residues; d marks the D form. Peptide text beside a SMILES is read from it. * marks the point of attachment. d2Nal = N[C@H](Cc1ccc2ccccc2c1)C(=O)O; pGlu = O=C1CC[C@@H](C(=O)O)N1; tBu = CC(C)(C)*

As to `CCNC(=O)[C@@H]1CCCN1C(=O)[C@H](CCCNC(=N)N)NC(=O)[C@H](CC(C)C)NC(=O)[C@@H](COC(C)(C)C)NC(=O)[C@H](Cc1c[nH]cn1)NC(=O)[C@H](CO)NC(=O)[C@H](Cc1c[nH]c2ccccc12)NC(=O)[C@H](Cc1c[nH]cn1)NC(=O)[C@@H]1CCC(=O)N1` [Compound 6, pGlu-His-Trp-Ser-His-D-Ser(tBu)-Leu-Arg-Pro-NHEt] ([pGlu]HWSH[dS](tBu)LRP-NHEt), the Solubility grading in data set [1] worked out at 1. For the same compound, the “GNRHR Stimulation at 1 μM” value in data set [2] (1000.0) came to 88 percentage.
`CCNC(=O)[C@@H]1CCCN1C(=O)[C@H](CCCNC(=N)N)NC(=O)[C@H](Cc1c[nH]c2ccccc12)NC(=O)[C@@H](COC(C)(C)C)NC(=O)[C@H](Cc1ccc(O)cc1)NC(=O)[C@H](CO)NC(=O)[C@H](Cc1c[nH]c2ccccc12)NC(=O)[C@H](Cc1c[nH]cn1)NC(=O)[C@@H]1CCC(=O)N1` [Compound 8, pGlu-His-Trp-Ser-Tyr-D-Ser(tBu)-Trp-Arg-Pro-NHEt] ([pGlu]HWSY[dS](tBu)WRP-NHEt) came in with a Solubility grading in data set [1] of 2. In data set [2] (1000.0), the “GNRHR Stimulation at 1 μM” value is 86 percentage.
For `CCNC(=O)[C@@H]1CCCN1C(=O)[C@H](Cc1ccc(O)cc1)NC(=O)[C@H](CC(C)C)NC(=O)[C@@H](COC(C)(C)C)NC(=O)[C@H](Cc1ccc(O)cc1)NC(=O)[C@H](CO)NC(=O)[C@H](Cc1c[nH]c2ccccc12)NC(=O)[C@H](Cc1c[nH]cn1)NC(=O)[C@@H]1CCC(=O)N1` [Compound 9, pGlu-His-Trp-Ser-Tyr-D-Ser(tBu)-Leu-Tyr-Pro-NHEt] ([pGlu]HWSY[dS](tBu)LYP-NHEt) the same measures were 1 and 78 percentage.
For `CCNC(=O)[C@@H]1CCCN1C(=O)[C@H](CCCNC(=N)N)NC(=O)[C@H](Cc1c[nH]c2ccccc12)NC(=O)[C@@H](COC(C)(C)C)NC(=O)[C@H](Cc1c[nH]cn1)NC(=O)[C@H](CO)NC(=O)[C@H](Cc1c[nH]c2ccccc12)NC(=O)[C@H](Cc1c[nH]cn1)NC(=O)[C@@H]1CCC(=O)N1` [Compound 10, pGlu-His-Trp-Ser-His-D-Ser(tBu)-Trp-Arg-Pro-NHEt] ([pGlu]HWSH[dS](tBu)WRP-NHEt) the same measures were 1 and 81 percentage.
In the case of `CCNC(=O)[C@@H]1CCCN1C(=O)[C@H](Cc1ccc(O)cc1)NC(=O)[C@H](CC(C)C)NC(=O)[C@@H](COC(C)(C)C)NC(=O)[C@H](Cc1c[nH]cn1)NC(=O)[C@H](CO)NC(=O)[C@H](Cc1c[nH]c2ccccc12)NC(=O)[C@H](Cc1c[nH]cn1)NC(=O)[C@@H]1CCC(=O)N1` [Compound 11, pGlu-His-Trp-Ser-His-D-Ser(tBu)-Leu-Tyr-Pro-NHEt] ([pGlu]HWSH[dS](tBu)LYP-NHEt), the Solubility grading in data set [1] was determined as 1. For the same compound, in data set [2] (1000.0), the “GNRHR Stimulation at 1 μM” value stood at 76 percentage.
The like results for `CCNC(=O)[C@@H]1CCCN1C(=O)[C@H](Cc1ccc(O)cc1)NC(=O)[C@H](Cc1c[nH]c2ccccc12)NC(=O)[C@@H](COC(C)(C)C)NC(=O)[C@H](Cc1ccc(O)cc1)NC(=O)[C@H](CO)NC(=O)[C@H](Cc1c[nH]c2ccccc12)NC(=O)[C@H](Cc1c[nH]cn1)NC(=O)[C@@H]1CCC(=O)N1` [Compound 12, pGlu-His-Trp-Ser-Tyr-D-Ser(tBu)-Trp-Tyr-Pro-NHEt] ([pGlu]HWSY[dS](tBu)WYP-NHEt) were, in that order, 4 and 80 percentage.
The like results for `CCNC(=O)[C@@H]1CCCN1C(=O)[C@H](Cc1ccc(O)cc1)NC(=O)[C@H](Cc1c[nH]c2ccccc12)NC(=O)[C@@H](COC(C)(C)C)NC(=O)[C@H](Cc1c[nH]cn1)NC(=O)[C@H](CO)NC(=O)[C@H](Cc1c[nH]c2ccccc12)NC(=O)[C@H](Cc1c[nH]cn1)NC(=O)[C@@H]1CCC(=O)N1` [Compound 13, pGlu-His-Trp-Ser-His-D-Ser(tBu)-Trp-Tyr-Pro-NHEt] ([pGlu]HWSH[dS](tBu)WYP-NHEt) were, in that order, 3 and 87 percentage.
In data set [1], `CC(C)C[C@H](NC(=O)[C@@H](Cc1c[nH]c2ccccc12)NC(=O)[C@H](Cc1ccc(O)cc1)NC(=O)[C@H](CO)NC(=O)[C@H](Cc1c[nH]c2ccccc12)NC(=O)[C@H](Cc1c[nH]cn1)NC(=O)[C@@H]1CCC(=O)N1)C(=O)N[C@@H](Cc1ccc(O)cc1)C(=O)N1CCC[C@H]1C(=O)NCC(N)=O` [Compound 14, pGlu-His-Trp-Ser-Tyr-D-Trp-Leu-Tyr-Pro-Gly-amide] ([pGlu]HWSY[dW]LYPG-NH2) gave a Solubility grading of 4.
`CC(C)C[C@H](NC(=O)[C@@H](Cc1c[nH]c2ccccc12)NC(=O)[C@H](Cc1c[nH]cn1)NC(=O)[C@H](CO)NC(=O)[C@H](Cc1c[nH]c2ccccc12)NC(=O)[C@H](Cc1c[nH]cn1)NC(=O)[C@@H]1CCC(=O)N1)C(=O)N[C@@H](Cc1ccc(O)cc1)C(=O)N1CCC[C@H]1C(=O)NCC(N)=O` [Compound 16, pGlu-His-Trp-Ser-His-D-Trp-Leu-Tyr-Pro-Gly-amide] ([pGlu]HWSH[dW]LYPG-NH2): the Solubility grading in data set [1] is 2.
Still for that read-out and setting: next, `N=C(N)NCCC[C@H](NC(=O)[C@H](Cc1c[nH]c2ccccc12)NC(=O)[C@@H](Cc1c[nH]c2ccccc12)NC(=O)[C@H](Cc1c[nH]cn1)NC(=O)[C@H](CO)NC(=O)[C@H](Cc1c[nH]c2ccccc12)NC(=O)[C@H](Cc1c[nH]cn1)NC(=O)[C@@H]1CCC(=O)N1)C(=O)N1CCC[C@H]1C(=O)NCC(N)=O` [Compound 20, pGlu-His-Trp-Ser-His-D-Trp-Trp-Arg-Pro-NHEt]: 3.
In data set [1], `CC(C)C[C@H](NC(=O)[C@@H](Cc1ccc2ccccc2c1)NC(=O)[C@H](Cc1c[nH]cn1)NC(=O)[C@H](CO)NC(=O)[C@H](Cc1c[nH]c2ccccc12)NC(=O)[C@H](Cc1c[nH]cn1)NC(=O)[C@@H]1CCC(=O)N1)C(=O)N[C@@H](CCCNC(=N)N)C(=O)N1CCC[C@H]1C(=O)NCC(N)=O` [Compound 23, pGlu-His-Trp-Ser-His-D-Nal-Leu-Arg-Pro-Gly-amide] ([pGlu]HWSH[d2Nal]LRPG-NH2) showed a Solubility grading of 1. Besides, the “GNRHR Stimulation at 1 μM” value in data set [2] (1000.0) is given as 106 percentage.
The like results for `N=C(N)NCCC[C@H](NC(=O)[C@H](Cc1c[nH]c2ccccc12)NC(=O)[C@@H](Cc1ccc2ccccc2c1)NC(=O)[C@H](Cc1ccc(O)cc1)NC(=O)[C@H](CO)NC(=O)[C@H](Cc1c[nH]c2ccccc12)NC(=O)[C@H](Cc1c[nH]cn1)NC(=O)[C@@H]1CCC(=O)N1)C(=O)N1CCC[C@H]1C(=O)NCC(N)=O` [Compound 24, pGlu-His-Trp-Ser-Tyr-D-Nal-Trp-Arg-Pro-Gly-amide] ([pGlu]HWSY[d2Nal]WRPG-NH2) were, in that order, 5 and 87 percentage.
Turning to `CCNC(=O)[C@@H]1CCCN1C(=O)[C@H](CCCNC(=N)N)NC(=O)[C@H](CC(C)C)NC(=O)[C@@H](Cc1cn(Cc2ccccc2)cn1)NC(=O)[C@H](Cc1ccc(O)cc1)NC(=O)[C@H](CO)NC(=O)[C@H](Cc1c[nH]c2ccccc12)NC(=O)[C@H](Cc1cnc[nH]1)NC(=O)[C@@H]1CCC(=O)N1` [Histrelin TFA, histrelin, reference compound], in data set [1], the Solubility grading was 2.
Same read-out and setting: the value for `CCNC(=O)[C@@H]1CCCN1C(=O)[C@H](CCCNC(=N)N)NC(=O)[C@H](CC(C)C)NC(=O)[C@@H](Cc1cn(Cc2ccccc2)cn1)NC(=O)[C@H](Cc1ccc(O)cc1)NC(=O)[C@H](CO)NC(=O)[C@H](Cc1c[nH]c2ccccc12)NC(=O)[C@H](Cc1cnc[nH]1)NC(=O)[C@@H]1CCC(=O)N1` [Histrelin acetate, histrelin, reference compound] was 4; that for `CCNC(=O)[C@@H]1CCCN1C(=O)[C@H](CCCNC(=N)N)NC(=O)[C@H](CC(C)C)NC(=O)[C@@H](CC(C)C)NC(=O)[C@H](Cc1ccc(O)cc1)NC(=O)[C@H](CO)NC(=O)[C@H](Cc1c[nH]c2ccccc12)NC(=O)[C@H](Cc1c[nH]cn1)NC(=O)[C@@H]1CCC(=O)N1` [Leuprorelin TFA, leuprorelin, reference compound] was 1.
On the same count and under the same terms, next, `CCNC(=O)[C@@H]1CCCN1C(=O)[C@H](CCCNC(=N)N)NC(=O)[C@H](CC(C)C)NC(=O)[C@@H](CC(C)C)NC(=O)[C@H](Cc1ccc(O)cc1)NC(=O)[C@H](CO)NC(=O)[C@H](Cc1c[nH]c2ccccc12)NC(=O)[C@H](Cc1c[nH]cn1)NC(=O)[C@@H]1CCC(=O)N1` [Leuprorelin acetate, leuprorelin, reference compound]: 2.
In the case of `CC(C)C[C@H](NC(=O)[C@@H](Cc1ccc2ccccc2c1)NC(=O)[C@H](Cc1ccc(O)cc1)NC(=O)[C@H](CO)NC(=O)[C@H](Cc1c[nH]c2ccccc12)NC(=O)[C@H](Cc1c[nH]cn1)NC(=O)[C@@H]1CCC(=O)N1)C(=O)N[C@@H](CCCNC(=N)N)C(=O)N1CCC[C@H]1C(=O)NCC(N)=O` [Nafarelin, nafarelin, reference compound], the “GNRHR Stimulation at 1 μM” value in data set [2] (1 μM, calcium assay, CHO-K1 cells) is on record as 100 (n = 2) percentage.
In the case of `CC(C)C[C@H](NC(=O)[C@@H](Cc1ccc2ccccc2c1)NC(=O)[C@H](Cc1ccc(O)cc1)NC(=O)[C@H](CO)NC(=O)[C@H](Cc1c[nH]c2ccccc12)NC(=O)[C@H](Cc1c[nH]cn1)NC(=O)[C@@H]1CCC(=O)N1)C(=O)N[C@@H](CCCNC(=N)N)C(=O)N1CCC[C@H]1C(=O)NCC(N)=O` [Naferelin TFA, nafarelin, reference compound], in data set [1], the Solubility grading came out at 1.
The same measure, in the same setting: the value for `CC(C)C[C@H](NC(=O)[C@@H](Cc1ccc2ccccc2c1)NC(=O)[C@H](Cc1ccc(O)cc1)NC(=O)[C@H](CO)NC(=O)[C@H](Cc1c[nH]c2ccccc12)NC(=O)[C@H](Cc1c[nH]cn1)NC(=O)[C@@H]1CCC(=O)N1)C(=O)N[C@@H](CCCNC(=N)N)C(=O)N1CCC[C@H]1C(=O)NCC(N)=O` [Naferelin acetate, nafarelin, reference compound] was 2.
